For this test, the system named is gastric acid secretion. As to the kind of experiment: perfused rat stomach preparation (histamine-stimulated acid secretion, perfusate pH). Type of test: in vivo, male Wistar rats. The note with it: bolus intravenous injection, maximal reduction in hydrogen-ion concentration as percentage of control, histamine infusion, urethane anaesthetised rat. As for the experimental part:
The ability of the compounds of the invention to modify the pH of gastric acid secretion was investigated as follows:
The perfused rat stomach preparation
The lumen of the stomach of male Wistar rats (approximately 200 g bodyweight) was perfused, via a cannula designed to reduce the dead space of the stomach, with 5% glucose solution (37^00) at the rate of 3 ml/min. The perfusate was forced over the surface of the secretory mucosa only, the antrum being excluded. The effluent then passed over a microflow type glass pH electrode via collecting funnel situated in the non-glandular forestomach.
The secretagogue histamine was administered as a constant intravenous infusion to produce a steady rate of acid secretion. Test compounds were administered in solution as bolus intravenous injections and any effect on the pH of the perfusate noted. The perfusate pH was recorded on a potentiometric recorder and anti-secretory responses were measured in terms of the maximal reduction in hydrogen-ion concentration expressed as a percentage of the 'control' concentrations.

One may read the Inhibition as the share of the control response that was lost under treatment. Higher therefore signals strong suppression.

In turn, `Cc1cnc(C[S+]([O-])c2nc3ccccc3[nH]2)cc1OCc1ccccc1` (centres unmarked) [Example 24b] returned an Inhibition (dose 2.5 (µmol/kg)) of 91%.
Regarding `Cc1c(OCc2ccc(F)cc2)ccnc1C[S+]([O-])c1nc2ccccc2[nH]1` (centres unmarked) [Example 10b, 2-[(4-[4-Fluorobenzyloxy]-3-methylpyrid-2-yl)methylsulphinyl]benzimidazole], under “dose 1 (µmol/kg)”, the Inhibition was determined as 80%.
The molecule `COc1ccc(COc2ccnc(C[S+]([O-])c3nc4ccccc4[nH]3)c2C)cc1` (centres unmarked) [Example 7b, 2-[(4-[4-methoxybenzyloxy]-3-methylpyrid-2-yl)methylsulphinyl]benzimidazole] had an Inhibition (dose 2 (µmol/kg)) of 86%.
The molecule `Cc1c(Oc2ccccc2)ccnc1C[S+]([O-])c1nc2ccccc2[nH]1` (centres unmarked) [Example 20b, 2-[(3-Methyl-4-phenoxypyrid-2-yl)methylsulphinyl]-benzimidazole] returned an Inhibition (dose 2 (µmol/kg)) of 72%.
Same read-out and setting: to `[O-][S+](Cc1cc(OCc2ccc(F)cc2)ccn1)c1nc2ccccc2[nH]1` (centres unmarked) [Example 21b, 2-[(4-(4-Fluorobenzyloxy)pyrid-2-yl)methylsuphinyl]-benzimidazole] belongs 100%; to “2-[(4-[3,5-dichlorobenzyloxy]-3-methylpyrid-2-yl)methyl sulphinyl]benzimidazole [Example 8b]”, 80%.
On to `[O-][S+](Cc1cc(OCCc2ccccc2)ccn1)c1nc2ccccc2[nH]1` (centres unmarked) [Example 18b, 2-[(4'-Phenethyloxypyrid-2-yl)methylsulphinyl]benzimidazole], for which, for the setting “dose 2 (µmol/kg)”, the Inhibition stood at 100%.
`Cc1c(OCc2ccccc2)ccnc1C[S+]([O-])c1nc2ccccc2[nH]1` (centres unmarked) [Example 1b, 2-[(4-Benzyloxy-3-methylpyrid-2-yl)methylsulphinyl]-benzimidazole] registered an Inhibition (dose 0.5 µmol/kg) of 82%.

For the origin of these results see patent EP0167943A2, “Benzimidazole derivatives, process for their preparation, and their use as pharmaceuticals” (BEECHAM GROUP PLC, priority 1984, dated 1986).
